Results from patent US20240262806A1, “INHIBITORS OF NLRP3” (PTC THERAPEUTICS, INC., priority 2021, published 2024).

Each molecule was assayed on NLRP3 inflammasome (assay: IL-1β Secretion Assay (NLRP3-dependent IL-1β secretion in PMA-differentiated THP-1 cells, nigericin activation, HTRF)). Conditions: Homo sapiens, THP-1, THP-1 cells, 100 ng/mL PMA 24 h, compound 20 h, 2.5 μM Nigericin 3 h; read-out: IC50 IL-1β Inhibition.
Assay type: cell-based
Experimental: Cells were washed 1× with 100 ul PBS and replaced with fresh RPMI+5% FBS. Compounds were serial diluted in DMSO with 3 fold dilution for a total of 7 concentrations.
Compounds, once produced and prepared according to the present invention, can be assessed in variety of assays to characterize their activities. […] IC50 values of IL1β inhibition were calculated from the plot of percentage of inhibition versus the inhibitor concentration by a logistics fit. TABLE I depict examples of compounds according to generic Formulae I. Data which is <1 nM is listed as *****; data 1-10 nM is listed as ****; data 10-100 nM is listed as ***, data 100-300 nM is listed as **, data >300 nM is listed as *.
For `Cc1cc(C(F)(F)F)cc(O)c1-c1nnc(N[C@@H]2CCCN(C)C2)c2cnccc12` [Compound I-103], the IC50 was < 1 nM. `CN1CCC[C@@H](Nc2nnc(-c3ccc(C(F)(F)F)cc3O)c3c(Cl)ccn23)C1` [Compound I-104, 2-[8-Chloro-4-[[(3R)-1-methyl-3-piperidyl]amino]pyrrolo[1,2-d][1,2,4]triazin-1-yl]-5-(trifluoromethyl)phenol] was tested, and the IC50 was 1 to 10 nM. Work on `Cc1cccc(O)c1-c1nnc(N[C@@H]2CCCN(C)C2)c2cnccc12` [Compound I-105] yielded an IC50 of 1 to 10 nM. In the case of `CN1CCC(c2ccc(-c3nnc(N[C@@H]4CCCN(C)C4)c4ccccc34)c(O)c2)C1` (stereo partly drawn) [Compound I-107], the IC50 is reported as 10 to 100 nM. `Oc1cc(C(F)(F)F)ccc1-c1nnc(NCCN2CCOCC2)c2ccccc12` [Compound I-108] was tested, and the IC50 was 10 to 100 nM. For `Oc1cc(C(F)(F)F)ccc1-c1nnc(NC2CNC2)c2ccccc12` [Compound I-109], the IC50 was 10 to 100 nM. With `Oc1cc(C(F)(F)F)ccc1-c1nnc(NC[C@@H]2CCCN2)c2ccncc12` [Compound I-110] the IC50 was < 1 nM. `Oc1cc(C(F)(F)F)ccc1-c1nnc(NC[C@@H]2CCCN2)c2cnccc12` [Compound I-111] showed an IC50 of 1 to 10 nM. For `CN1CCC[C@H]1CNc1nnc(-c2ccc(C(F)(F)F)cc2O)c2ccncc12` [Compound I-112], the IC50 was < 1 nM. For `CCN1CCC[C@H]1CNc1nnc(-c2ccc(C(F)(F)F)cc2O)c2ccncc12` [Compound I-113], the IC50 was < 1 nM. Work on `CN1CCN(c2nnc(-c3ccc(C(F)(F)F)cc3O)c3cnccc23)CC1` [Compound I-116] yielded an IC50 of 100 to 300 nM. `CN1CCC[C@@H](Nc2nnc(-c3ccc(C(F)(F)F)cc3O)c3c2N(C)CCO3)C1` [Compound I-117] was tested, and the IC50 was 10 to 100 nM. In the case of `CN1CCCC(Cc2nnc(-c3ccc(C(F)(F)F)cc3O)c3cnccc23)C1` (stereo not drawn) [Compound I-118, 2-(1-((1-Methylpiperidin-3-yl)methyl)pyrido[3,4-d]pyridazin-4-yl)-5-(trifluoromethyl)phenol], the IC50 is reported as 1 to 10 nM. With `COc1cc(C(F)(F)F)ccc1-c1nnc(N[C@@H]2CCCN(C)C2)c2cnccc12` [Compound I-119] the IC50 was 1 to 10 nM. For `CN1CCC[C@@H](Nc2nnc(-c3ccc(C(F)(F)F)cc3OC(F)F)c3ccccc23)C1` [Compound I-120], the IC50 was 1 to 10 nM. With `CN1CCC[C@@H](Nc2nnc(-c3ccc(C(F)(F)F)cc3OC(F)F)c3ccncc23)C1` [Compound I-121] the IC50 was < 1 nM. `CN1CCC[C@@H](Nc2nnc(-c3ccc(C(F)(F)F)cc3OC(F)F)c3cnccc23)C1` [Compound I-122] was tested, and the IC50 was 1 to 10 nM. `CN1CCC[C@@H](Nc2nnc(-c3ccc(C(F)(F)F)cc3N)c3ccccc23)C1` [Compound I-123] gave an IC50 of 1 to 10 nM. Molecule `CN1CCC[C@@H](Nc2nnc(-c3ccc(C(F)(F)F)cc3NS(C)(=O)=O)c3ccccc23)C1` [Compound I-124] has an IC50 of 1 to 10 nM. In the case of `CNc1cc(C(F)(F)F)ccc1-c1nnc(N[C@@H]2CCCN(C)C2)c2ccccc12` [Compound I-125], the IC50 is reported as 1 to 10 nM. For `CC(=O)Nc1cc(C(F)(F)F)ccc1-c1nnc(N[C@@H]2CCCN(C)C2)c2ccccc12` [Compound I-126], the IC50 was 1 to 10 nM. Molecule `CN1CCC[C@@H](Nc2nnc(-c3ccc(C(F)(F)F)cc3F)c3ccccc23)C1` [Compound I-127] has an IC50 of 1 to 10 nM. With `CN1CCC[C@@H](Nc2nnc(-c3ccc(C(F)(F)F)cc3F)c3ccncc23)C1` [Compound I-128] the IC50 was 1 to 10 nM. For `CN1CCC[C@@H](Nc2nnc(-c3ccc(Cl)cc3F)c3ccncc23)C1` [Compound I-129], the IC50 was < 1 nM. `CN1CCC[C@@H](Nc2nnc(-c3ccc(C(F)(F)F)cc3C#N)c3ccncc23)C1` [Compound I-130] was tested, and the IC50 was 1 to 10 nM. Molecule `CN1CCC[C@@H](Nc2nnc(-c3ccc(C(F)(F)F)cc3C#N)c3ccccc23)C1` [Compound I-131] has an IC50 of 1 to 10 nM. For `CN1CCC[C@@H](Nc2nnc(-c3ccc(Cl)cc3OC(F)F)c3ccncc23)C1` [Compound I-132], the IC50 was < 1 nM. With `CN1CCC[C@@H](Nc2nnc(-c3ccc(Cl)cc3OC(F)F)c3ccccc23)C1` [Compound I-133] the IC50 was 1 to 10 nM. With `Cc1ccc(-c2nnc(N[C@@H]3CCCN(C)C3)c3cnccc23)c(OC(F)F)c1` [Compound I-134] the IC50 was 1 to 10 nM. For `Cc1ccc(-c2nnc(N[C@@H]3CCCN(C)C3)c3ccccc23)c(OC(F)F)c1` [Compound I-135], the IC50 was 1 to 10 nM. `Cc1ccc(-c2nnc(N[C@@H]3CCCN(C)C3)c3cnccc23)c(C#N)c1` [Compound I-136] gave an IC50 of 1 to 10 nM. With `CN1CCC[C@@H](Nc2nnc(-c3ccc(-n4nccn4)cc3O)c3ccncc23)C1` [Compound I-137] the IC50 was < 1 nM. In the case of `CN1CCC[C@@H](Nc2nnc(-c3ccc(C(F)(F)F)cc3C(F)F)c3ccncc23)C1` [Compound I-138], the IC50 is reported as 1 to 10 nM. In the case of `CN1CCC[C@H](Nc2nnc(-c3c(O)cccc3Cl)c3ccncc23)C1` [Compound I-139], the IC50 is reported as 1 to 10 nM. For `CN1CCC[C@@H](Nc2nnc(-c3c(O)cccc3C#N)c3ccncc23)C1` [Compound I-140], the IC50 was 1 to 10 nM. For `CN1CCC[C@@H](Nc2nnc(-c3ccc(C(F)(F)F)cc3Cl)c3ccncc23)C1` [Compound I-143, (R)-1-(2-Chloro-4-(trifluoromethyl)phenyl)-N-(1-methylpiperidin-3-yl)pyrido[3,4-d]pyridazin-4-amine], the IC50 was 1 to 10 nM. Molecule `COc1cc(C(F)(F)F)ccc1-c1nnc(N[C@@H]2CCCN(C)C2)c2c1cnn2C` [Compound I-144, 4-[2-Methoxy-4-(trifluoromethyl)phenyl]-1-methyl-N-[(3R)-1-methyl-3-piperidyl]pyrazolo[3,4-d]pyridazin-7-amine] has an IC50 of 1 to 10 nM. In the case of `CN1CCC[C@@H](Nc2nnc(-c3ccc(C(F)(F)F)cc3C3=CCOC3)c3ccncc23)C1` [Compound I-145], the IC50 is reported as 1 to 10 nM. `CN1CCC[C@@H](Nc2nnc(-c3ccc(C(F)(F)F)cc3O)c3cnn(C)c23)C1` [Compound I-146, 2-[1-Methyl-7-[[(3R)-1-methyl-3-piperidyl]amino]pyrazolo[3,4-d]pyridazin-4-yl]-5-(trifluoromethyl)phenol] was tested, and the IC50 was < 1 nM. `C[C@@H]1COCCN1CCNc1nnc(-c2ccc(C(F)(F)F)cc2O)c2ccccc12` [Compound I-147] showed an IC50 of 10 to 100 nM. `C[C@H]1COCCN1CCNc1nnc(-c2ccc(C(F)(F)F)cc2O)c2ccccc12` [Compound I-148] gave an IC50 of 10 to 100 nM. For `Oc1cc(C(F)(F)F)ccc1-c1nnc(NCC2CCN2)c2ccccc12` (stereo not drawn) [Compound I-150], the IC50 was 10 to 100 nM. For `CN1C[C@H](F)C[C@@H](Nc2nnc(-c3ccc(C(F)(F)F)cc3O)c3ccccc23)C1` [Compound I-151], the IC50 was < 1 nM. `CN(C)C1CCCN(c2nnc(-c3ccc(C(F)(F)F)cc3O)c3cnccc23)C1` (stereo not drawn) [Compound I-152] showed an IC50 of 1 to 10 nM. `COc1cc(C(F)(F)F)ccc1-c1nnc(N2CCNCC2)c2ccncc12` [Compound I-153] gave an IC50 of 10 to 100 nM. With `CN1CCC[C@@H](Nc2nnc(-c3ccc(C(F)(F)F)cc3O)c3c2N(C)CCC3)C1` [Compound I-154] the IC50 was 1 to 10 nM. `CN1CCC[C@H](Nc2nnc(-c3ccc(Cl)cc3O)c3c2N(C)CCC3)C1` [Compound I-155] showed an IC50 of 1 to 10 nM. With `CN1CCC[C@@H](Nc2nnc(-c3ccc(C(F)(F)F)cc3S(N)(=O)=O)c3ccncc23)C1` [Compound I-156, (R)-2-(4-((1-methylpiperidin-3-yl)amino)pyrido[3,4-d]pyridazin-1-yl)-5-(trifluoromethyl)benzene-sulfonamide] the IC50 was 100 to 300 nM. With `CN1CCC[C@@H](Nc2nnc(-c3ccc(Cl)cc3C#N)c3ccncc23)C1` [Compound I-157] the IC50 was 1 to 10 nM. With `CN1CCC[C@@H](Nc2nnc(-c3ccc(C4CC4)cc3C(F)(F)F)c3ccncc23)C1` [Compound I-158] the IC50 was < 1 nM. For `Cc1cncc(-c2nnc(N[C@@H]3CCCN(C)C3)c3ccccc23)c1O` [Compound I-159], the IC50 was 100 to 300 nM. `COc1nc(C)ccc1-c1nnc(N[C@@H]2CCCN(C)C2)c2ccccc12` [Compound I-160] was tested, and the IC50 was 100 to 300 nM. Work on `CN1CCN(CCNc2nnc(-c3ccc(C(F)(F)F)cc3O)c3ccccc23)CC1` [Compound I-161] yielded an IC50 of 10 to 100 nM. `COc1cc(C(F)(F)F)ccc1-c1nnc(N2CCCC(N(C)C)C2)c2ccncc12` (stereo not drawn) [Compound I-162] showed an IC50 of 10 to 100 nM. Work on `CN1CCC[C@@H](Nc2nnc(-c3ccc(Cl)c(N)c3O)c3ccccc23)C1` [Compound I-163, (R)-2-Amino-3-chloro-6-(4-((1-methylpiperidin-3-yl)amino)phthalazin-1-yl)phenol] yielded an IC50 of 10 to 100 nM. Molecule `CN1C[C@@H](F)C[C@H](Nc2nnc(-c3ccc(C(F)(F)F)cc3O)c3ccccc23)C1` [Compound I-164] has an IC50 of 10 to 100 nM. For `Cc1ccc(-c2nnc(N[C@@H]3CCCN(C)C3)c3ccccc23)c(F)c1F` [Compound I-165], the IC50 was 10 to 100 nM. With `CN1CCC[C@@H](Nc2nnc(-c3ccc(C(F)(F)F)cc3)c3ccncc23)C1` [Compound I-166] the IC50 was 1 to 10 nM. `CN1CCC[C@@H](Nc2nnc(-c3ccc(C#N)cc3OC(F)F)c3ccncc23)C1` [Compound I-167] showed an IC50 of 10 to 100 nM. With `Cc1cccc(-c2nnc(N[C@@H]3CCCN(C)C3)c3cnccc23)c1OC(F)F` [Compound I-168] the IC50 was 10 to 100 nM. Work on `CNS(=O)(=O)c1cc(C(F)(F)F)ccc1-c1nnc(N[C@@H]2CCCN(C)C2)c2cnccc12` [Compound I-169] yielded an IC50 of 10 to 100 nM. In the case of `CN1CCC[C@@H](Nc2nnc(-c3c(O)cc(Cl)cc3F)c3ccncc23)C1` [Compound I-170], the IC50 is reported as < 1 nM. `COc1ccc(-c2nnc(N[C@@H]3CCCN(C)C3)c3cnccc23)c(OC(F)F)c1` [Compound I-171] was tested, and the IC50 was < 1 nM. Work on `CN1CCC[C@@H](Nc2nnc(-c3ncc(Cl)cc3O)c3ccncc23)C1` [Compound I-172] yielded an IC50 of 1 to 10 nM. `COCOc1cc(-c2ncco2)ccc1-c1nnc(N[C@H]2CCCN(C)C2)c2cnccc12` [Compound I-173] showed an IC50 of 10 to 100 nM. For `Cn1cc(CNc2nnc(-c3ccc(C(F)(F)F)cc3O)c3ccncc23)cn1` [Compound I-174], the IC50 was 10 to 100 nM.
